From patent US20070191491A1, “[…] OF STORED GOODS, ENCLOSURES, […] WORKS OF ART, WITH SULPHUR COMPOUNDS” (Arkema France, priority 2002, published 2007)

What was measured:
[1] = system: Sitophilus granarius; test: Efficacy of DMDS in a silo of wheat grains infested with Sitophilus granarius (adult mortality, % NER); type: in vivo; conditions: for Total No. of insects emerged: untreated control 271
Protocol: (§1) These two organisms are Sitophilus granarius and Sitophilus orizae.
(§2) Dimensions of the silo: • total height: 40 cm • total volume: 3.3 l • filling level: 75%, that is a grain height of […].
(§3) 99 mg of pure DMDS are deposited at the surface of the grains using a syringe. The samples collected consist of bundles of 50 g of wheat containing all the stages of development of the pathogenic organisms. After degassing by aeration of the silo at the times T, the bundles of wheat are screened and the adults are counted immediately after screening (D+0) and after 14 days (D+14). The wheat containing the other stages of development is then examined for 5 weeks.
The products CT of the concentrations C of DMDS by the times of measurement T are determined and the efficacy of the treatment in relation to the 2 pathogenic organisms studied for all the stages of development is monitored as a function of these products CT. The results are expressed: • as a percentage of the adult mortality at the times (D+0) and (D+14). • as a percentage of net emergence reduction (% NER) relative to an untreated control batch for the different stages of development of these organisms (that is to say eggs and 2nd generation, eggs and 1st stage larvae, 1st and 2nd stage larvae, 2nd and 3rd stage larvae, 3rd and 4th stage larvae, 4th stage larvae and nymphs), which corresponds to the following formula: % NER=(number of insects which emerged live from the control batch−number of insects which emerged live from the treated batch)/(number of insects which emerged live from the control batch).

[2] = system: Sitophilus orizae; test: Efficacy of DMDS in a silo of wheat grains infested with Sitophilus orizae; type: in vivo; conditions: same trial conditions, 20° C.
Protocol: as §1, §2, §3
The products CT of the concentrations C of DMDS by the times of measurement T are determined and the efficacy of the treatment in relation to the 2 pathogenic organisms studied for all the stages of development is monitored as a function of these products CT. […]
Under the same trial conditions, this time on organisms of the Sitophilus orizae type, similar results are obtained. The pesticidal efficacy of DMDS against the pathogenic organism Sitophilus orizae is evaluated in terms of the product CT at about 100 ghm^−3 (useful CT).

SMILES: CSSC [DMDS, dimethyl disulphide]
- % NER Eggs and 2nd generation ([1]; CT 5.8 gh.m^−3, 20° C.): 13%
- % NER Eggs and Ist stage larvae ([1]; CT 5.8 gh.m^−3, 20° C.): 41%
- % NER IIIrd and IVth stage larvae ([1]; CT 5.8 gh.m^−3, 20° C.): 3%
- % NER IInd and IIIrd stage larvae ([1]; CT 5.8 gh.m^−3, 20° C.): 13%
- % NER IVth stage larvae and nymphs ([1]; CT 5.8 gh.m^−3, 20° C.): 21%
- % NER Ist and IInd stage larvae ([1]; CT 5.8 gh.m^−3, 20° C.): 20%
- % adult mortality D + 0 ([1]; CT 5.8 gh.m^−3, 20° C.): 0%
- % adult mortality D + 14 ([1]; CT 5.8 gh.m^−3, 20° C.): 8%
- Total % NER ([1]; CT 5.8 gh.m^−3, 20° C.): 25%
- Total No. of insects emerged ([1]; CT 5.8 gh.m^−3, 20° C.): 202
- % NER Eggs and 2nd generation ([1]; CT 6.1 gh.m^−3, 20° C.): 33%
- % NER Eggs and Ist stage larvae ([1]; CT 6.1 gh.m^−3, 20° C.): 5%
- % NER IIIrd and IVth stage larvae ([1]; CT 6.1 gh.m^−3, 20° C.): 19%
- % NER IInd and IIIrd stage larvae ([1]; CT 6.1 gh.m^−3, 20° C.): 16%
- % NER IVth stage larvae and nymphs ([1]; CT 6.1 gh.m^−3, 20° C.): 54%
- % NER Ist and IInd stage larvae ([1]; CT 6.1 gh.m^−3, 20° C.): 80%
- % adult mortality D + 0 ([1]; CT 6.1 gh.m^−3, 20° C.): 3%
- % adult mortality D + 14 ([1]; CT 6.1 gh.m^−3, 20° C.): 9%
- Total % NER ([1]; CT 6.1 gh.m^−3, 20° C.): 23%
- Total No. of insects emerged ([1]; CT 6.1 gh.m^−3, 20° C.): 208
- % NER Eggs and 2nd generation ([1]; CT 15.0 gh.m^−3, 20° C.): 25%
- % NER Eggs and Ist stage larvae ([1]; CT 15.0 gh.m^−3, 20° C.): 54%
- % NER IIIrd and IVth stage larvae ([1]; CT 15.0 gh.m^−3, 20° C.): 26%
- % NER IInd and IIIrd stage larvae ([1]; CT 15.0 gh.m^−3, 20° C.): 71%
- % NER IVth stage larvae and nymphs ([1]; CT 15.0 gh.m^−3, 20° C.): 75%
- % NER Ist and IInd stage larvae ([1]; CT 15.0 gh.m^−3, 20° C.): 88%
- % adult mortality D + 0 ([1]; CT 15.0 gh.m^−3, 20° C.): 64%
- % adult mortality D + 14 ([1]; CT 15.0 gh.m^−3, 20° C.): 93%
- Total % NER ([1]; CT 15.0 gh.m^−3, 20° C.): 54%
- Total No. of insects emerged ([1]; CT 15.0 gh.m^−3, 20° C.): 126
- % NER Eggs and 2nd generation ([1]; CT 26.9 gh.m^−3, 20° C.): 20%
- % NER Eggs and Ist stage larvae ([1]; CT 26.9 gh.m^−3, 20° C.): 79%
- % NER IIIrd and IVth stage larvae ([1]; CT 26.9 gh.m^−3, 20° C.): 65%
- % NER IInd and IIIrd stage larvae ([1]; CT 26.9 gh.m^−3, 20° C.): 94%
- % NER IVth stage larvae and nymphs ([1]; CT 26.9 gh.m^−3, 20° C.): 92%
- % NER Ist and IInd stage larvae ([1]; CT 26.9 gh.m^−3, 20° C.): 88%
- % adult mortality D + 0 ([1]; CT 26.9 gh.m^−3, 20° C.): 92%
- % adult mortality D + 14 ([1]; CT 26.9 gh.m^−3, 20° C.): 92%
- Total % NER ([1]; CT 26.9 gh.m^−3, 20° C.): 72%
- Total No. of insects emerged ([1]; CT 26.9 gh.m^−3, 20° C.): 75
- % NER Eggs and 2nd generation ([1]; CT 50.5 gh.m^−3, 20° C.): 93%
- % NER Eggs and Ist stage larvae ([1]; CT 50.5 gh.m^−3, 20° C.): 100%
- % NER IIIrd and IVth stage larvae ([1]; CT 50.5 gh.m^−3, 20° C.): 97%
- % NER IInd and IIIrd stage larvae ([1]; CT 50.5 gh.m^−3, 20° C.): 100%
- % NER IVth stage larvae and nymphs ([1]; CT 50.5 gh.m^−3, 20° C.): 100%
- % NER Ist and IInd stage larvae ([1]; CT 50.5 gh.m^−3, 20° C.): 100%
- % adult mortality D + 0 ([1]; CT 50.5 gh.m^−3, 20° C.): 100%
- % adult mortality D + 14 ([1]; CT 50.5 gh.m^−3, 20° C.): 100%
- Total % NER ([1]; CT 50.5 gh.m^−3, 20° C.): 99%
- Total No. of insects emerged ([1]; CT 50.5 gh.m^−3, 20° C.): 4
- % NER Eggs and 2nd generation ([1]; CT 88.4 gh.m^−3, 20° C.): 95%
- % NER Eggs and Ist stage larvae ([1]; CT 88.4 gh.m^−3, 20° C.): 100%
- % NER IIIrd and IVth stage larvae ([1]; CT 88.4 gh.m^−3, 20° C.): 100%
- % NER IInd and IIIrd stage larvae ([1]; CT 88.4 gh.m^−3, 20° C.): 100%
- % NER IVth stage larvae and nymphs ([1]; CT 88.4 gh.m^−3, 20° C.): 100%
- % NER Ist and IInd stage larvae ([1]; CT 88.4 gh.m^−3, 20° C.): 100%
- % adult mortality D + 0 ([1]; CT 88.4 gh.m^−3, 20° C.): 100%
- % adult mortality D + 14 ([1]; CT 88.4 gh.m^−3, 20° C.): 100%
- Total % NER ([1]; CT 88.4 gh.m^−3, 20° C.): 99%
- Total No. of insects emerged ([1]; CT 88.4 gh.m^−3, 20° C.): 2
- % NER Eggs and 2nd generation ([1]; CT 160.4 gh.m^−3, 20° C.): 100%
- % NER Eggs and Ist stage larvae ([1]; CT 160.4 gh.m^−3, 20° C.): 100%
- % NER IIIrd and IVth stage larvae ([1]; CT 160.4 gh.m^−3, 20° C.): 100%
- % NER IInd and IIIrd stage larvae ([1]; CT 160.4 gh.m^−3, 20° C.): 100%
- % NER IVth stage larvae and nymphs ([1]; CT 160.4 gh.m^−3, 20° C.): 100%
- % NER Ist and IInd stage larvae ([1]; CT 160.4 gh.m^−3, 20° C.): 100%
- % adult mortality D + 0 ([1]; CT 160.4 gh.m^−3, 20° C.): 100%
- % adult mortality D + 14 ([1]; CT 160.4 gh.m^−3, 20° C.): 100%
- Total % NER ([1]; CT 160.4 gh.m^−3, 20° C.): 100%
- Total No. of insects emerged ([1]; CT 160.4 gh.m^−3, 20° C.): 0
- mortality for the majority of the stages ([1]; CT values greater than 50 gh.m^−3): 100%
- mortality for all the stages of development ([1]; product CT of 160 gh.m^−3): 100%
- pesticidal efficacy in terms of the product CT (useful CT) ([1]; wheat silo, 20° C.): about 100 ghm^−3
- pesticidal efficacy in terms of the product CT (useful CT) [2]: about 100 ghm^−3
